Laboratory results as given in patent EP3284739A1, “SUBSTITUTED (HET) ARYL COMPOUNDS AS PESTICIDES” (Bayer CropScience Aktiengesellschaft, priority 2017, dated 2018).

Assays:
Phaedon cochleariae = Phaedon cochleariae spray test (Chinese cabbage leaf discs, larvae); type: in vivo; conditions: foliar, 168 h, read-out: Wirkung
Text: (§1) Zur Herstellung einer zweckmäßigen Wirkstoffzubereitung löst man 1 Gewichtsteil Wirkstoff mit den angegebenen Gewichtsteilen Lösungsmittel und füllt mit Wasser, welches eine Emulgatorkonzentration von 1000 ppm enthält, bis zum Erreichen der gewünschten Konzentration auf. Zur Herstellung weiterer Testkonzentrationen wird mit emulgatorhaltigem Wasser verdünnt.
Chinakohlblattscheiben (Brassica pekinensis) werden mit einer Wirkstoffzubereitung der gewünschten Konzentration gespritzt und nach dem Abtrocknen mit Larven des Meerrettichblattkäfers (Phaedon cochleariae) besetzt.
Nach 7 Tagen wird die Wirkung in % bestimmt. Dabei bedeutet 100 %, dass alle Käferlarven abgetötet wurden; 0 % bedeutet, dass keine Käferlarven abgetötet wurden.

[1] = logP by reversed-phase HPLC (LC-MS), acidic range; type: physicochemical; conditions: c18 hplc, formic acid/acetonitrile; pH 2,7, 0,1 % aqueous Ameisensäure / Acetonitril, C 18, 55°C; read-out: logP (HCOOH)
Procedure: Die Messung der logP Werte erfolgt gemäß EEC Directive 79/831 Annex V.A8 durch HPLC (High Performance Liquid Chromatography) an einer Phasenumkehrsäule (C 18). Temperatur: 55°C. Die Bestimmung mit der LC-MS im sauren Bereich erfolgt bei pH 2,7 mit 0,1 % wässriger Ameisensäure und Acetonitril (enthält 0,1% Ameisensäure) als Eluenten; linearer Gradient von 10% Acetonitril bis 95% Acetonitril. In der Tabelle logP (HCOOH) genannt.
Die Eichung erfolgt mit unverzweigten Alkan-2-onen (mit 3 bis 16 Kohlenstoffatomen), deren logP-Werte bekannt sind (Bestimmung der logP-Werte anhand der Retentionszeiten durch lineare Interpolation zwischen zwei aufeinander folgenden Alkanonen).

Spodoptera frugiperda = Spodoptera frugiperda spray test (maize leaf discs, caterpillars); type: in vivo; conditions: foliar, 168 h, Aufwandmenge 500g/ha, after 7 days, read-out: Wirkung
Text: as §1
Maisblattscheiben (Zea mays) werden mit einer Wirkstoffzubereitung der gewünschten Konzentration gespritzt und nach dem Abtrocknen mit Raupen des Heerwurms (Spodoptera frugiperda) besetzt.
Nach 7 Tagen wird die Wirkung in % bestimmt. Dabei bedeutet 100 %, dass alle Raupen abgetötet wurden; 0 % bedeutet, dass keine Raupe abgetötet wurde.

Lucilia cuprina = Lucilia cuprina test (L1 larvae on treated minced horse meat); type: in vivo; conditions: 48 h, Aufwandmenge 100ppm, after 2 days, read-out: Wirkung (Abtötung)
Procedure: (§2) Zur Herstellung einer zweckmäßigen Wirkstoffzubereitung vermischt man 10 mg Wirkstoff mit 0,5 ml Dimethylsulfoxid und verdünnt das Konzentrat mit Wasser auf die gewünschte Konzentration.
Ca. 20 L1-Larven der Australischen Schafgoldfliege (Lucilia cuprina) werden in ein Testgefäß überführt, welches gehacktes Pferdefleisch und die Wirkstoffzubereitung der gewünschten Konzentration enthält.
Nach 2 Tagen wird die Abtötung in % bestimmt. Dabei bedeutet 100 %, dass alle Larven abgetötet wurden; 0 % bedeutet, dass keine Larven abgetötet wurden.

Ctenocephalides felis [2] = experiment: Ctenocephalides felis oral test (feeding on treated citrated cattle blood); type: in vivo; conditions: 48 h, Aufwandmenge 100ppm, after 2 days, read-out: Wirkung (Abtötung)
Procedure: Zwecks Herstellung einer zweckmäßigen Wirkstoffzubereitung vermischt man 10 mg Wirkstoff mit 0,5 ml Dimethylsulfoxid. Durch Verdünnen mit citriertem Rinderblut erhält man die gewünschte Konzentration.
Ca. 20 nüchterne adulte Katzenflöhe (Ctenocephalides felis) werden in eine Kammer eingesetzt, die oben und unten mit Gaze verschlossen ist. Auf die Kammer wird ein Metallzylinder gestellt, dessen Unterseite mit Parafilm verschlossen ist. Der Zylinder enthält die Blut-Wirkstoffzubereitung, die von den Flöhen durch die Parafilmmembran aufgenommen werden kann.
Nach 2 Tagen wird die Abtötung in % bestimmt. Dabei bedeutet 100 %, dass alle Flöhe abgetötet wurden; 0 % bedeutet, dass keiner der Flöhe abgetötet wurde.

Meloidogyne incognita = Meloidogyne incognita test (gall formation on lettuce roots); type: in vivo; conditions: 336 h, Aufwandmenge 20ppm, after 14 days, read-out: Wirkung (nematizide Wirkung anhand der Gallenbildung)
Text: Zur Herstellung einer zweckmäßigen Wirkstoffzubereitung vermischt man 1 Gewichtsteil Wirkstoff mit der angegebenen Menge Lösungsmittel und verdünnt das Konzentrat mit Wasser auf die gewünschte Konzentration.
Gefäße werden mit Sand, Wirkstofflösung, einer Ei-Larven-Suspension des südlichen Wurzelgallenälchens (Meloidogyne incognita) und Salatsamen gefüllt. Die Salatsamen keimen und die Pflänzchen entwickeln sich. An den Wurzeln entwickeln sich die Gallen.
Nach 14 Tagen wird die nematizide Wirkung anhand der Gallenbildung in % bestimmt. Dabei bedeutet 100 %, dass keine Gallen gefunden wurden; 0 % bedeutet, dass die Zahl der Gallen an den behandelten Pflanzen der unbehandelten Kontrolle entspricht.

Musca domestica = Musca domestica test (adult flies, treated sugar sponge); type: in vivo; conditions: 48 h, read-out: Wirkung (Abtötung)
Procedure: as §2
Gefäße, die einen Schwamm enthalten, der mit Zuckerlösung und der Wirkstoffzubereitung der gewünschten Konzentration behandelt wurde, werden mit 10 adulten Stubenfliegen (Musca domestica) besetzt.
Nach 2 Tagen wird die Abtötung in % bestimmt. Dabei bedeutet 100 %, dass alle Fliegen abgetötet wurden; 0 % bedeutet, dass keine der Fliegen abgetötet wurde.

Ctenocephalides felis [3] = experiment: Ctenocephalides felis in-vitro contact test with adult cat fleas (coated glass tubes); type: in vivo; conditions: 48 h, read-out: Wirkung
Procedure: Für die Beschichtung der Teströhrchen werden zunächst 9 mg Wirkstoff in 1 ml Aceton p.a. gelöst und anschließend mit Aceton p.a. auf die gewünschte Konzentration verdünnt. 250 µl der Lösung werden durch Drehen und Kippen auf einem Rotationsschüttler (2 h Schaukelrotation bei 30 rpm) homogen auf den Innenwänden und dem Boden eines 25ml Glasröhrchens verteilt. Bei 900 ppm Wirkstofflösung und 44,7 cm^2 Innenoberfläche wird bei homogener Verteilung eine Flächendosis von 5 µg/cm^2 erreicht.
Nach Abdampfen des Lösungsmittels werden die Gläschen mit 5-10 adulten Katzenflöhen (Ctenocephalides felis) besetzt, mit einem gelochten Kunststoffdeckel verschlossen und liegend bei Raumtemperatur und Umgebungsfeuchte inkubiert. Nach 48 h wird die Wirksamkeit bestimmt. Hierzu werden die Gläschen aufrecht gestellt und die Flöhe auf den Boden des Gläschens geklopft. Flöhe, die unbeweglich auf dem Boden verbleiben oder sich unkoordiniert bewegen, gelten als tot bzw. angeschlagen.
Eine Substanz zeigt gute Wirkung gegen Ctenocephalides felis, wenn in diesem Test bei einer Aufwandmenge von 5 µg/cm^2 mindestens 80% Wirkung erzielt wurde. Dabei bedeutet 100% Wirkung, dass alle Flöhe angeschlagen oder tot waren. 0% Wirkung bedeutet, dass keine Flöhe geschädigt wurden.

Tetranychus urticae = Tetranychus urticae spray test, OP-resistant (bean leaf discs); type: in vivo; conditions: foliar, 144 h, read-out: Wirkung
Text: as §1
Bohnenblattscheiben (Phaseolus vulgaris), die von allen Stadien der Gemeinen Spinnmilbe (Tetranychus urticae) befallen sind, werden mit einer Wirkstoffzubereitung der gewünschten Konzentration gespritzt.
Nach 6 Tagen wird die Wirkung in % bestimmt. Dabei bedeutet 100 %, dass alle Spinnmilben abgetötet wurden; 0 % bedeutet, dass keine Spinnmilben abgetötet wurden.

Myzus persicae = Myzus persicae spray test (Chinese cabbage leaf discs); type: in vivo; conditions: foliar, 144 h, Aufwandmenge 500g/ha, after 6 days, read-out: Wirkung
Text: as §1
Chinakohlblattscheiben (Brassica pekinensis), die von allen Stadien der Grünen Pfirsichblattlaus (Myzus persicae) befallen sind, werden mit einer Wirkstoffzubereitung der gewünschten Konzentration gespritzt.
Nach 6 Tagen wird die Wirkung in % bestimmt. Dabei bedeutet 100 %, dass alle Blattläuse abgetötet wurden; 0 % bedeutet, dass keine Blattläuse abgetötet wurden.

SMILES | mortality at 500 g/ha (Phaedon cochleariae) [%] | chromatographic logP [1] | mortality at 500 g/ha (Spodoptera frugiperda) [%] | mortality at 100 µg/mL (Lucilia cuprina) [%] | mortality at 100 µg/mL (Ctenocephalides felis [2]) [%] | inhibition at 20 µg/mL (Meloidogyne incognita) [%] | mortality at 100 µg/mL (Musca domestica) [%] | mortality at 500 g/ha (Ctenocephalides felis [3]) [%] | mortality at 500 g/ha (Tetranychus urticae) [%] | mortality at 500 g/ha (Myzus persicae) [%]
CC(C)C(=O)Nc1cc(NC(=O)C2CC2)cc(-c2ccc(C(F)(F)C(F)(F)F)c(F)c2)c1 [I-060, N-[3'-Fluor-5-(isobutyrylamino)-4'-(pentafluorethyl)biphenyl-3-yl]cyclopropancarboxamid] | 100 | 3.7 | 100 |  |  |  |  |  |  | 
O=C(Nc1cc(-c2ccc(OC(F)(F)F)cc2)cc(NC(=O)C2CC2)n1)C1CC1 [I-001, N,N'-{4-[4-(Trifluormethoxy)phenyl]pyridin-2,6-diyl}dicyclopropancarboxamid] | 100 |  | 100 | 95 | 100 | 90 |  |  |  | 
O=C(Nc1cc(-c2ccc(OC(F)(F)F)cc2)cc(NC(=O)C2(C3CC3)CC2)n1)C1CC1 [I-014] | 100 |  | 100 | 100 | 100 |  | 80 |  |  | 
CC(C)(C)C(=O)Nc1cc(-c2ccc(OC(F)(F)F)cc2)cc(NC(=O)C2CC2)n1 [I-017] | 100 |  | 100 |  | 100 |  |  | 100 |  | 
O=C(Nc1cc(-c2ccc(C(F)(F)C(F)(F)F)cc2)cc(NC(=O)C2CC2)n1)C1CC1 [I-036] | 83 |  | 100 | 95 | 100 |  |  |  | 90 | 
O=C(Nc1cc(-c2ccc(OC(F)(F)F)cc2)cc(NC(=O)C2(c3ccccc3)CC2)n1)C1CC1 [I-008] |  |  |  |  |  |  |  |  |  | 90
O=C(Nc1cc(-c2ccc(OC(F)(F)F)cc2)cc(NC(=O)C2(C(F)(F)F)CC2)n1)C1CC1 [I-006] | 83 |  | 100 |  | 100 |  | 90 |  |  | 
